From the NIST ThermoML archive (doi:10.1016/j.fluid.2012.09.007)
Numbers after ± are expanded uncertainties.

Assay: xn = mol fraction of the nth substance listed
Conditions: 101 kPa, Liquid, Vibrating tube method

CC(C)CC(C)(C)C [2,2,4-trimethylpentane] + CCC(C)(C)OC
x2 = 0
Conditions | mass density [kg/m3]
298.15 K | 687.68 ± 0.16
308.15 K | 679.48 ± 0.16
318.15 K | 671.34 ± 0.16

CC(C)CC(C)(C)C [2,2,4-trimethylpentane] + c1ccccc1
Conditions | mass density [kg/m3]
298.15 K, x2 = 0 | 687.69 ± 0.18
298.15 K, x2 = 0.06106 | 693.48 ± 0.18
298.15 K, x2 = 0.1418 | 701.74 ± 0.17
298.15 K, x2 = 0.2015 | 708.37 ± 0.17
298.15 K, x2 = 0.2685 | 716.35 ± 0.17
298.15 K, x2 = 0.3382 | 725.38 ± 0.16
298.15 K, x2 = 0.399 | 733.9 ± 0.16
298.15 K, x2 = 0.4639 | 743.77 ± 0.16
298.15 K, x2 = 0.5179 | 752.66 ± 0.15
298.15 K, x2 = 0.5986 | 767.18 ± 0.15
298.15 K, x2 = 0.6562 | 778.61 ± 0.14
298.15 K, x2 = 0.7257 | 793.77 ± 0.14
298.15 K, x2 = 0.7993 | 811.66 ± 0.13
298.15 K, x2 = 0.871 | 831.31 ± 0.13
298.15 K, x2 = 0.9483 | 855.37 ± 0.12
308.15 K, x2 = 0 | 679.5 ± 0.18
308.15 K, x2 = 0.07837 | 686.91 ± 0.18
308.15 K, x2 = 0.139 | 693.09 ± 0.18
308.15 K, x2 = 0.2112 | 701.03 ± 0.17
308.15 K, x2 = 0.2701 | 707.99 ± 0.17
308.15 K, x2 = 0.3244 | 714.88 ± 0.17
308.15 K, x2 = 0.3912 | 723.99 ± 0.16
308.15 K, x2 = 0.4607 | 734.35 ± 0.16
308.15 K, x2 = 0.5319 | 745.93 ± 0.15
308.15 K, x2 = 0.6019 | 758.53 ± 0.15
308.15 K, x2 = 0.6669 | 771.38 ± 0.14
308.15 K, x2 = 0.7335 | 785.91 ± 0.14
308.15 K, x2 = 0.7944 | 800.56 ± 0.13
308.15 K, x2 = 0.8662 | 819.8 ± 0.13
308.15 K, x2 = 0.9302 | 839.08 ± 0.12
318.15 K, x2 = 0 | 671.34 ± 0.19
318.15 K, x2 = 0.07013 | 677.83 ± 0.18
318.15 K, x2 = 0.1336 | 684.16 ± 0.18
318.15 K, x2 = 0.2025 | 691.56 ± 0.18
318.15 K, x2 = 0.272 | 699.64 ± 0.17
318.15 K, x2 = 0.3457 | 708.99 ± 0.17
318.15 K, x2 = 0.4011 | 716.6 ± 0.17
318.15 K, x2 = 0.466 | 726.21 ± 0.16
318.15 K, x2 = 0.535 | 737.39 ± 0.16
318.15 K, x2 = 0.5941 | 747.85 ± 0.15
318.15 K, x2 = 0.6592 | 760.41 ± 0.15
318.15 K, x2 = 0.7319 | 775.94 ± 0.14
318.15 K, x2 = 0.7981 | 791.66 ± 0.14
318.15 K, x2 = 0.8656 | 809.56 ± 0.13
318.15 K, x2 = 0.9321 | 829.34 ± 0.12

CCC(C)(C)OC [2-methoxy-2-methylbutane] + CC(C)CC(C)(C)C
Conditions | mass density [kg/m3]
298.15 K, x1 = 0.06668 | 691.73 ± 0.16
298.15 K, x1 = 0.1334 | 695.93 ± 0.16
298.15 K, x1 = 0.2065 | 700.7 ± 0.17
298.15 K, x1 = 0.2712 | 705.05 ± 0.18
298.15 K, x1 = 0.3376 | 709.68 ± 0.19
298.15 K, x1 = 0.3977 | 713.99 ± 0.2
298.15 K, x1 = 0.4666 | 719.11 ± 0.22
298.15 K, x1 = 0.527 | 723.75 ± 0.24
298.15 K, x1 = 0.5952 | 729.17 ± 0.26
298.15 K, x1 = 0.6668 | 735.06 ± 0.29
298.15 K, x1 = 0.7314 | 740.58 ± 0.32
298.15 K, x1 = 0.7975 | 746.43 ± 0.36
298.15 K, x1 = 0.8616 | 752.31 ± 0.39
298.15 K, x1 = 0.9325 | 759.06 ± 0.44
298.15 K, x1 = 1 | 765.77 ± 0.49
308.15 K, x1 = 0.06672 | 683.48 ± 0.16
308.15 K, x1 = 0.1383 | 687.9 ± 0.17
308.15 K, x1 = 0.2056 | 692.2 ± 0.17
308.15 K, x1 = 0.2684 | 696.36 ± 0.18
308.15 K, x1 = 0.3406 | 701.28 ± 0.19
308.15 K, x1 = 0.401 | 705.55 ± 0.2
308.15 K, x1 = 0.4585 | 709.75 ± 0.22
308.15 K, x1 = 0.5291 | 715.06 ± 0.24
308.15 K, x1 = 0.5953 | 720.24 ± 0.26
308.15 K, x1 = 0.6632 | 725.74 ± 0.29
308.15 K, x1 = 0.7339 | 731.67 ± 0.32
308.15 K, x1 = 0.7946 | 736.96 ± 0.35
308.15 K, x1 = 0.8646 | 743.27 ± 0.39
308.15 K, x1 = 0.9319 | 749.58 ± 0.44
308.15 K, x1 = 1 | 756.19 ± 0.48
318.15 K, x1 = 0.06682 | 675.24 ± 0.17
318.15 K, x1 = 0.1368 | 679.49 ± 0.17
318.15 K, x1 = 0.1974 | 683.27 ± 0.17
318.15 K, x1 = 0.2673 | 687.79 ± 0.18
318.15 K, x1 = 0.3375 | 692.5 ± 0.19
318.15 K, x1 = 0.401 | 696.91 ± 0.21
318.15 K, x1 = 0.4676 | 701.69 ± 0.22
318.15 K, x1 = 0.5324 | 706.5 ± 0.24
318.15 K, x1 = 0.5984 | 711.56 ± 0.26
318.15 K, x1 = 0.6593 | 716.41 ± 0.29
318.15 K, x1 = 0.7309 | 722.32 ± 0.32
318.15 K, x1 = 0.7982 | 728.08 ± 0.35
318.15 K, x1 = 0.8669 | 734.18 ± 0.39
318.15 K, x1 = 0.932 | 740.18 ± 0.43
318.15 K, x1 = 1 | 746.69 ± 0.48
